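Cells were grown in 96-well plates and exposed to each compound for 48 hours at five concentrations; endpoints were interpolated linearly between bracketing concentrations, or set to the highest concentration if not reached. The concentration for full growth arrest is given as TGI.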
How the values were obtained:
Assay in all cases: NCI-60 cell line screen, 48 h
[1] = tested on: BT-549 breast
[2] = tested on: K-562 leukemia
[3] = tested on: SNB-19 CNS
[4] = tested on: HOP-92 NSCLC
[5] = tested on: T-47D breast
[6] = tested on: UACC-62 melanoma
[7] = tested on: SF-295 CNS
[8] = tested on: SW-620 colon
[9] = tested on: OVCAR-4 ovarian
[10] = tested on: SK-MEL-5 melanoma
[11] = tested on: HS 578T breast
[12] = tested on: 786-0 renal
[13] = tested on: NCI-H522 lung
[14] = tested on: CCRF-CEM leukemia
[15] = tested on: NCI-H23 lung
[16] = tested on: NCI/ADR-RES ovarian
[17] = tested on: LOX IMVI melanoma
[18] = tested on: MALME-3M melanoma
[19] = tested on: HL-60(TB) leukemia
[20] = tested on: COLO 205 colon
[21] = tested on: SK-MEL-28 melanoma
[22] = tested on: NCI-H226 lung
[23] = tested on: A498 renal
[24] = tested on: UACC-257 melanoma
[25] = tested on: CAKI-1 renal
[26] = tested on: KM12 colon
[27] = tested on: OVCAR-8 ovarian
[28] = tested on: SF-539 CNS
[29] = tested on: M14 melanoma
[30] = tested on: SN12C renal
[31] = tested on: EKVX NSCLC
[32] = tested on: SF-268 CNS
[33] = tested on: UO-31 renal
[34] = tested on: PC-3 prostate
[35] = tested on: HCT-116 colon
[36] = tested on: MDA-MB-231 breast
[37] = tested on: HCT-15 colon
[38] = tested on: NCI-H460 lung
[39] = tested on: HOP-62 NSCLC
[40] = tested on: MDA-MB-435
[41] = tested on: A549 NSCLC
[42] = tested on: SK-MEL-2 melanoma
[43] = tested on: RXF 393 renal
[44] = tested on: U251 CNS
[45] = tested on: TK-10 renal
[46] = tested on: RPMI-8226 leukemia
[47] = tested on: MCF7 breast
[48] = tested on: HT29 colon
[49] = tested on: MDA-N
[50] = tested on: DU-145 prostate
[51] = tested on: ACHN renal
[52] = tested on: IGROV1 ovarian
[53] = tested on: OVCAR-5 ovarian
[54] = tested on: OVCAR-3 ovarian
[55] = tested on: SR leukemia
[56] = tested on: SNB-75 CNS
[57] = tested on: SK-OV-3 ovarian

CCOC(=O)CNC(=O)C(CSCC1C(=O)Nc2ccccc21)NC(=O)CCC(N)C(=O)OCC (stereo not given)
TGI [1]: 7.14 µM | TGI [2]: 0.948 µM | TGI [3]: 20 µM | TGI [4]: 5.03 µM | TGI [5]: > 100 µM | TGI [6]: 2.92 µM | TGI [7]: 6.31 µM | TGI [8]: 2.73 µM | TGI [9]: 9.11 µM | TGI [10]: 3.26 µM | TGI [11]: 17.6 µM | TGI [12]: 4.28 µM | TGI [13]: 3.59 µM | TGI [14]: 0.79 µM | TGI [15]: 5.62 µM | TGI [16]: 3.02 µM | TGI [17]: 1.64 µM | TGI [18]: 4.89 µM | TGI [19]: 4.7 µM | TGI [20]: 2.54 µM | TGI [21]: 3.59 µM | TGI [22]: 5.44 µM | TGI [23]: 8.19 µM | TGI [24]: 14.3 µM | TGI [25]: 2.4 µM | TGI [26]: 8.33 µM | TGI [27]: 11.4 µM | TGI [28]: 0.608 µM | TGI [29]: 4.01 µM | TGI [30]: 3.64 µM | TGI [31]: 4.47 µM | TGI [32]: 6.44 µM | TGI [33]: 2.74 µM | TGI [34]: 4.9 µM | TGI [35]: 2.97 µM | TGI [36]: 3.48 µM | TGI [37]: 2.53 µM | TGI [38]: 20.9 µM | TGI [39]: 4.99 µM | TGI [40]: 3.19 µM | TGI [41]: 6.63 µM | TGI [42]: 4.51 µM | TGI [43]: 2.72 µM | TGI [44]: 2.73 µM | TGI [45]: 5.14 µM | TGI [46]: 3.09 µM | TGI [47]: 3.46 µM | TGI [48]: 3.02 µM | TGI [49]: 5.01 µM | TGI [50]: 34.4 µM | TGI [51]: 3.74 µM | TGI [52]: 2.83 µM | TGI [53]: 3.65 µM | TGI [54]: 5.65 µM | TGI [55]: 0.546 µM

O=C(O)C1(Nc2ccc(Cl)cc2)CCCC1
TGI [1]: > 100 µM | TGI [2]: > 100 µM | TGI [3]: > 100 µM | TGI [4]: > 100 µM | TGI [5]: > 100 µM | TGI [6]: > 100 µM | TGI [7]: > 100 µM | TGI [8]: > 100 µM | TGI [9]: > 100 µM | TGI [10]: > 100 µM | TGI [11]: > 100 µM | TGI [12]: > 100 µM | TGI [13]: > 100 µM | TGI [14]: > 100 µM | TGI [15]: > 100 µM | TGI [16]: > 100 µM | TGI [17]: > 100 µM | TGI [18]: > 100 µM | TGI [19]: > 100 µM | TGI [20]: > 100 µM | TGI [21]: > 100 µM | TGI [22]: > 100 µM | TGI [23]: > 100 µM | TGI [56]: > 100 µM | TGI [25]: > 100 µM | TGI [26]: > 100 µM | TGI [27]: > 100 µM | TGI [29]: > 100 µM | TGI [30]: > 100 µM | TGI [31]: > 100 µM | TGI [32]: > 100 µM | TGI [33]: > 100 µM | TGI [34]: > 100 µM | TGI [35]: > 100 µM | TGI [36]: > 100 µM | TGI [37]: > 100 µM | TGI [38]: > 100 µM | TGI [39]: > 100 µM | TGI [40]: > 100 µM | TGI [41]: > 100 µM | TGI [42]: > 100 µM | TGI [43]: > 100 µM | TGI [44]: > 100 µM | TGI [45]: > 100 µM | TGI [46]: > 100 µM | TGI [47]: > 100 µM | TGI [48]: > 100 µM | TGI [49]: > 100 µM | TGI [57]: > 100 µM | TGI [50]: > 100 µM | TGI [51]: > 100 µM | TGI [52]: > 100 µM | TGI [53]: > 100 µM | TGI [54]: > 100 µM | TGI [55]: > 100 µM

From PubChem BioAssay (NCI)
